PMC10315065 (Journal of Innate Immunity, 2023)
Starred links: 1 amine or outer side, 2 acyl side, 3 side chain; linkers in the order of their positions; H or OH if unused. Positions of bridges follow the written chain, without caps; N, C: chain ends. Non-standard residues stand in square brackets, D forms with d. Residues, ends and D or L forms follow the SMILES beside them. Chains are numbered I, II in the order given. Actinocin(9to1) = Cc1c2oc3c(C)ccc(C(=O)[*:1])c3nc-2c(C(=O)[*:2])c(N)c1=O; NMeV = CN[C@H](C(=O)O)C(C)C; Sar = CNCC(=O)O

Tests used:
[1] = tested on: peritoneal macrophages; assay: Flow cytometry binding/uptake of LL-37-FAM, peritoneal macrophages; format: cell-based, C57BL/6 mice
[2] = tested on: J774 macrophages; assay: Flow cytometry binding/internalization of labelled peptide, J774; format: cell-based, mouse; conditions: n = 3
[3] = tested on: cell surface GAPDH, J774; format: cell-based, mouse; conditions: KN-62 100 nM, 4 h; J774 wild-type; n = 3
[4] = tested on: intracellular Mycobacterium tuberculosis in macrophages; conditions: cited from earlier work; for autophagy activation and M.tb elimination: via induction of cathelicidin LL-37
[5] = tested on: GAPDH KD and wild-type cells; conditions: induced with actinomycin D; cited from earlier work
[6] = tested on: THP-1 cells; assay: Endocytosis of BSA-FITC; format: cell-based; conditions: BSA-FITC 10 μg, 37°C, 30 min; PMA-activated THP-1
[7] = Downstream effects of scrambled peptide; conditions: statement on negative control peptide
[8] = tested on: TLR-4, THP-1 cells; assay: TLR-4 membrane expression on LPS treatment; format: cell-based; conditions: LPS 1 ug, 24 h; PMA-activated THP-1

## 5-FAM-LC-LLGDFFRKSKEKIGKEFKRIVQRIKDFLRNLVPRTES [LL-37-FAM]
[1]
  cell surface LL-37 binding and uptake, M.tb infected: significantly enhanced
[2]; IFNγ-treated subsets vs control cells
  LL-37 membrane accumulation and uptake, IFNγ-treated: initial higher accumulation of FAM-LL-37 at their membrane, followed by increase in LL-37 uptake into the cytoplasm

## CN([C@@H](Cc1ccc(OS(=O)(=O)c2cccc3cnccc23)cc1)C(=O)N1CCN(c2ccccc2)CC1)S(=O)(=O)c1cccc2cnccc12 [KN-62, 1-(N,O-bis(5-Isoquinolinesulfonyl)-N-methyl-L-tyrosyl)-4-phenylpiperazine]
[2]; KN-62 100 nM, 4 h, J774 wild-type
  LL-37 uptake with KN-62: inhibition of LL-37 uptake into cells
[3]
  cell surface GAPDH expression with KN-62: decrease in cell surface GAPDH expression
[4]; KN-62
  effect on LL-37-induced anti-mycobacterial effects: does not inhibit LL-37-induced anti-mycobacterial effects

## Cc1c2oc3c(C)ccc(C(=O)N[C@@H]4C(=O)N[C@H](C(C)C)C(=O)N5CCC[C@H]5C(=O)N(C)CC(=O)N(C)[C@@H](C(C)C)C(=O)O[C@@H]4C)c3nc-2c(C(=O)N[C@@H]2C(=O)N[C@H](C(C)C)C(=O)N3CCC[C@H]3C(=O)N(C)CC(=O)N(C)[C@@H](C(C)C)C(=O)O[C@@H]2C)c(N)c1=O [actinomycin D] (I: T[dV]P[Sar][NMeV] / II: T[dV]P[Sar][NMeV]; ester I:1-I:C, II:1-II:C; linker I:N-II:N via Actinocin(9to1))
[5]
  induction of apoptosis, GAPDH KD vs wild-type: comparable

## O=C(O)CCCc1ccccc1 [phenylbutyrate]
[4]
  autophagy activation and M.tb elimination: activate the antibacterial autophagy mechanism

## C=C1/C(=C\C=C2/CCC[C@]3(C)[C@@H]([C@H](C)CCCC(C)(C)O)CC[C@@H]23)C[C@@H](O)C[C@@H]1O [vitamin 1,25-D3]
[4]
  autophagy activation and M.tb elimination: activate the antibacterial autophagy mechanism

## BSA: BSA-FITC, endocytosis control
[6]
  endocytosis of BSA, empty vector vs GAPDH KD: could equally well carry out endocytosis of BSA

## GLKLRFEFSKIKGEFLKTPEVRFRDIKLKDNRISVQR [scrambled peptide]
[7]
  downstream effects of scrambled peptide: does not show downstream effects like the LL-37 peptide

## lipopolysaccharide
[8]
  TLR-4 membrane expression, empty vector and GAPDH KD: upregulation of TLR-4 membrane expression levels
